What all share (assay type): in vivo
Data set [1] relates to Cotton Aphid (Aphis gossypii). In words: Test (foliar spraying) for controlling cotton aphid. To be noted: 120 h, 5 days after treatment; for mortality at 12.5 ppm / mortality at 50 ppm / mortality at 3.1 ppm: foliar spraying; for mortality at 200 ppm: foliar spraying on cucumber leaf. Here is the method:
A cucumber leaf cut to a diameter of 3.5 cm was placed on cotton wool moistened with water. Two adult cotton aphids were released there for offspring for 24 hours and the adult insects were then removed. […] After air-drying, the sample with cotton wool was placed in a plastic cup, which was covered with a lid and kept in a chamber at a constant temperature of 25° C. for rearing.

In data set [2] the test system is Brown Planthopper (Nilaparvata lugens). In words: Test (foliar dipping) for controlling brown planthopper. To be noted: 120 h, rice seedlings dipped, 5 days after treatment; for mortality at 200 ppm: third instar larvae. Here is the method: […] After air-drying, the rice seedlings held with urethane in a glass cylinder having an inner diameter of 4.5 cm and a length of 14 cm were set up in a plastic cup containing 40 mL of water. Larvae of brown planthoppers in the third instar larva were released there. The cylinder was covered with a lid of medicine paper and kept in a chamber at a constant temperature of 25° C. for rearing.

The subject of data set [3] is Southern Yellow thrips (Thrips palmi). In words: Test (foliar spraying) for controlling southern yellow thrips. To be noted: 3 days after treatment; for mortality at 200 ppm: 72 h, foliar spraying on cucumber leaf, first instar larvae; for Mortality of Thrips palmi (%): foliar spraying. As to the method:
A cucumber leaf cut to a diameter of 1.5 cm was placed on cotton wool moistened with water. […] After air-drying, 5 larvae of southern yellow thrips in the first instar larva were released there. The sample with cotton wool was placed in a plastic cup, which was covered with a lid and kept in a chamber at a constant temperature of 25° C. for rearing.

Data set [4] has as its system Brown Planthopper (Nilaparvata lugens). In words: Test (root dipping) for controlling brown planthopper. To be noted: 200 ppm, root dipping of rice seedlings, larvae released after 2 days, 5 days after treatment. As to the method:
Ten sampled rice seedlings held with urethane in a glass cylinder having an inner diameter of 4.5 cm and a length of 14 cm were set up in a plastic cup containing 40 mL of chemical solution diluted to a desired concentration. After 2 days, 10 larvae of brown planthoppers in the third instar larva were released in the glass cylinder. The glass cylinder was covered with a lid of medicine paper and kept in a chamber at a constant temperature of 25° C. for rearing.

For data set [5] the test system is unchanged. In words: Residual effect test (field experiment) for brown planthopper. As to the method:
The roots of five sampled rice seedlings were washed with water. Subsequently, 25 mg of the wettable powder prepared in accordance with Formulation Example 2 described above was wrapped in the roots. Each strain was made from the five seedlings. In outdoor artificial paddy fields made from wooden frames having a size of 60 cm by 90 cm, 10 strains were planted, respectively. The artificial paddy field was shielded by an insect screen with a mesh size of 1 mm, so that invasion of harmful insects from the outside was prevented. Into the test system, 40 to 100 adult brown planthoppers were released at fixed intervals so as to cause damage to the rice. On 16 to 51 days after the treatment, the numbers of surviving insects and dead insects were measured to calculate the density index. The density index was obtained from the following expression.

Where a name gives a salt, the structure may show the parent alone. Some results are limits rather than exact numbers.

Consider `Cc1cccc(-c2c([O-])[n+](CCCCC#N)c3ccccn3c2=O)c1` [Comparative compound 3], for which, in data set [1], the mortality at 12.5 ppm stood at 0%, the mortality at 50 ppm is 40% and the mortality at 200 ppm is 100%.

In data set [1], `CC(C#N)C[n+]1c([O-])c(-c2cccc(C(F)(F)F)c2)c(=O)n2ccccc21` (stereo not shown) [Comparative compound 6] showed a mortality at 12.5 ppm of 50% and a mortality at 50 ppm of 100%.

`CCOc1cccc(-c2c([O-])[n+](CCC#N)c3ccccn3c2=O)c1` [Compound 21, 1-(2-cyanoethyl)-3-(3-ethoxyphenyl)-2-hydroxy-4-oxo-4H-pyrido[1,2-a]pyrimidinium inner salt]: in data set [2], the mortality at 0.01 ppm amounted to 10%, the mortality at 0.02 ppm was 70%, the mortality at 0.05 ppm was found to be 80% and the mortality at 200 ppm is ≥ 80%. The mortality at 200 ppm in data set [3] was ≥ 80%. In data set [1], the mortality at 200 ppm is ≥ 80%.

In data set [1], `N#CCCC[n+]1c([O-])c(-c2cccc(C(F)(F)F)c2)c(=O)n2ccccc21` [Comparative compound 4] yielded a mortality at 3.1 ppm of 0% and a mortality at 12.5 ppm of 75%.

In turn, `Cc1cccc(-c2c([O-])[n+](CCCCCCCC#N)c3ccccn3c2=O)c1` [Comparative compound 1] showed a mortality at 200 ppm in data set [1] of 0%.

For `N#CCC[n+]1c([O-])c(-c2ccccc2)c(=O)n2ccccc21` [Compound 1, 1-(2-cyanoethyl)-2-hydroxy-4-oxo-3-phenyl-4H-pyrido[1,2-a]pyrimidinium inner salt], the mortality at 0.012 ppm in data set [2] (0.012 ppm) is 50%. In data set [2] (0.024 ppm), this compound displayed a mortality at 0.024 ppm of 60%. Further, the mortality at 0.049 ppm in data set [2] (0.049 ppm) amounted to 70%. In addition, the mortality at 200 ppm in data set [2], in data set [3] and in data set [1] was ≥ 80% throughout.

As for `Cc1cccn2c(=O)c(-c3cc(Cl)cc(Cl)c3)c([O-])[n+](Cc3cnc(Cl)s3)c12` [Dicloromezotiaz], the mortality at 200 ppm came to 0% in data set [2], 0% in data set [4], 0% in data set [3] and 100% in data set [1]. The compound also came in with a mortality at 12.5 ppm in data set [1] of 0%. In addition, in data set [1], the mortality at 50 ppm was determined as 90%.

Consider `N#CC[n+]1c([O-])c(-c2cccc(C(F)(F)F)c2)c(=O)n2ccccc21` [Comparative compound 5], for which, in data set [1], the mortality at 3.1 ppm came out at 0% and the mortality at 12.5 ppm stood at 10%.

`CC(CC#N)[n+]1c([O-])c(-c2cccc(C(F)(F)F)c2)c(=O)n2ccccc21` (stereo not shown) [Comparative compound 7] yielded a mortality at 200 ppm in data set [1] of 0%.

Consider `COc1cccc(-c2c([O-])[n+](CCC#N)c3ccccn3c2=O)c1` [Compound 18, 1-(2-cyanoethyl)-2-hydroxy-3-(3-methoxyphenyl)-4-oxo-4H-pyrido[1,2-a]pyrimidinium inner salt], for which the mortality at 0.01 ppm in data set [2] is 10%. Also, the mortality at 0.02 ppm in data set [2] stood at 20%. In data set [2], this compound returned a mortality at 0.05 ppm of 100%. The mortality at 200 ppm in data set [2], in data set [3] and in data set [1] was ≥ 80% throughout. Also, the “Mortality of Thrips palmi (%)” value in data set [3] (3.1 ppm), in data set [3] (12.5 ppm) and in data set [3] (50 ppm) was 100% in each case.

On to `Cc1cccc(-c2c([O-])[n+](CCCCCC#N)c3ccccn3c2=O)c1` [Comparative compound 2], for which, in data set [1], the mortality at 50 ppm came to 0% and the mortality at 200 ppm stood at 20%.

As for `N#Cc1nn(-c2c(Cl)cc(C(F)(F)F)cc2Cl)c(N)c1[S+]([O-])C(F)(F)F` (stereo not shown) [Fipronil, reference compound], the “Density index of Nilaparvata lugens” value was 0 in data set [5] (After 16 days, 25 mg wettable powder (Formulation Example 2) at roots per strain, outdoor artificial paddy field); 5.4 in data set [5] (After 23 days, 25 mg wettable powder at roots per strain, artificial paddy field); 56.2 in data set [5] (After 30 days, 25 mg wettable powder at roots per strain, artificial paddy field); 73.9 in data set [5] (After 37 days, 25 mg wettable powder at roots per strain, artificial paddy field); 105 in data set [5] (After 44 days, 25 mg wettable powder at roots per strain, artificial paddy field); 98.4 in data set [5] (After 51 days, 25 mg wettable powder at roots per strain, artificial paddy field).

For orientation: mortality means the percentage killed.
